Laboratory results taken from publication PMC11234460, “In Silico Discovery of Stapled Peptide Inhibitor Targeting the Nur77‐PPARγ Interaction and Its Anti‐Breast‐Cancer Efficacy” (Advanced Science, 2024).
Where a SMILES comes first, the peptide text is derived from it. Bridges are numbered along the chain shown (N, C = ends). [ ]: non-standard residue; d: D form. S5 = C=CCCC[C@](C)(N)C(=O)O

What was measured:
MDA-MB-231-GFP xenograft = assay: MDA-MB-231-GFP orthotopic xenograft tumor model; format: in vivo, mouse
Text: (§1) Female BALB/c mice (4–5 weeks old, 16–18 g) and BALB/c mice (7–8 weeks old, 18–20 g) were provided by Shanghai Slake Experimental Animal Co., Ltd., and housed under specific pathogen‐free conditions for use in orthotopic xenograft tumor model experiments and bone metastasis tumor model experiments. The animal experiment was approved by the ethical committee of Shanghai University of Traditional Chinese Medicine (approval number: PZSHUTCM220627036).
To establish the bone metastasis tumor model, 1×10^5 cells were injected into the left ventricle of each mouse (7–8 weeks old), and surgery was monitored using a cardiac ultrasound instrument. The mice were randomly divided into three groups and treated with PBS (control group, n = 6), 5 mg kg^−1 ST‐CY14 (n = 6), and 10 mg kg^−1 ST‐CY14 (n = 6) Tumor cell metastasis was monitored using an in vivo imaging instrument (IVIS Spectrum, PerkinElmer, USA). by intraperitoneal injection of 20 mg kg^−1 D‐luciferin. The mice were treated with ST‐CY14 via intravenous injection using a 100 µL PBS solution every 2 days starting on the designated day after tumor cell injection. Bone tissue with MDA‐BoM‐1833 cell metastasis was obtained and stained for TRAP. The mice sera were collected and analyzed for BSP and β‐CTx levels using ELISA (Lengton, BPE10823, BPE10438). For the orthotopic xenograft tumor model, 3×10^6 cells were injected into the fourth pair of breast pads on the left side of the mouse (4–5 weeks old). The mice were treated with ST‐CY14 every two days once the tumor volume reached 30–50 mm^3, with the same groups as in the bone metastasis tumor model. The tumors were collected and stained for H&E, Ki‐67, and TUNEL assays, which were conducted by Wuhan Servicebio Technology Co., Ltd. Major organs (heart, liver, spleen, lung, and kidney) were also collected for H&E analysis by Wuhan Servicebio Technology Co., Ltd. The Transcriptome and LC/MS targeted lipid metabolome were sequenced by OE Biotech, Inc., Shanghai, China. […]

[1] = tested on: MDA-BoM-1833 bone metastasis; assay: Bone metastatic breast cancer model (MDA-BoM-1833, left ventricle injection); format: in vivo, mouse
Text: as §1
To establish the bone metastasis tumor model, 1×10^5 cells were injected into the left ventricle of each mouse (7–8 weeks old), and surgery was monitored using a cardiac ultrasound instrument. The mice were randomly divided into three groups and treated with PBS (control group, n = 6), 5 mg kg^−1 ST‐CY14 (n = 6), and 10 mg kg^−1 ST‐CY14 (n = 6) Tumor cell metastasis was monitored using an in vivo imaging instrument (IVIS Spectrum, PerkinElmer, USA). by intraperitoneal injection of 20 mg kg^−1 D‐luciferin. The mice were treated with ST‐CY14 via intravenous injection using a 100 µL PBS solution every 2 days starting on the designated day after tumor cell injection. Bone tissue with MDA‐BoM‐1833 cell metastasis was obtained and stained for TRAP. The mice sera were collected and analyzed for BSP and β‐CTx levels using ELISA (Lengton, BPE10823, BPE10438). For the orthotopic xenograft tumor model, 3×10^6 cells were injected into the fourth pair of breast pads on the left side of the mouse (4–5 weeks old). The mice were treated with ST‐CY14 every two days once the tumor volume reached 30–50 mm^3, with the same groups as in the bone metastasis tumor model. The tumors were collected and stained for H&E, Ki‐67, and TUNEL assays, which were conducted by Wuhan Servicebio Technology Co., Ltd. Major organs (heart, liver, spleen, lung, and kidney) were also collected for H&E analysis by Wuhan Servicebio Technology Co., Ltd. The Transcriptome and LC/MS targeted lipid metabolome were sequenced by OE Biotech, Inc., Shanghai, China. To evaluate the efficacy of Csn‐B in inhibiting breast cancer bone metastasis, an animal model was established as described above. The mice were randomly divided into three groups and treated with PBS (control group, n = 6), 10 mg kg^−1 ST‐CY14 (n = 6) in 100 µL PBS solution, and 5 mg kg^−1 ST‐CY14 (n = 6) in a 100 µL mixed solution (5% DMSO, 20% PEG 400, 5% Tween 80, and 70% normal saline) via intravenous injection every 2 days starting on the designated day after tumor cell injection.

MDA-MB-231 cells = assay: Western blot of Nur77, CD36 and FABP4; format: cell-based
Method: MCF7 and MDA‐MB‐231 cells were treated with various concentrations of peptide. The cells were then collected and lysed in NP40 lysis buffer. Total protein was quantified using a BCA assay kit (Beyotime, P0010S). The proteins were separated by SDS‐PAGE and transferred onto a PVDF membrane. The PVDF membrane was blocked in TBST containing 5% non‐fat milk, and then incubated with primary antibodies overnight at 4 °C. Subsequently, membranes were incubated with horseradish peroxidase‐conjugated antirabbit or antimouse IgG secondary antibody for 1 h at room temperature. The membranes were analyzed by a Tanon‐5200 Multi Gel Imaging Analysis System (Tanon) and quantified by ImageJ software.

MCF-10A cells = conditions: 24 h, CCK-8
Method: MCF7, MDA‐MB‐231, and MDA‐BoM‐1833 cells (5000 cells/well) were seeded in 96‐well plates and cultured overnight at 37°C and 5% CO2. The cells were then treated with fresh basic medium containing various concentrations (1/2/5/10/20 × 10^−6 M) of compounds. After 24 h of incubation, the cells were incubated with a basic medium containing 10% Cell Counting Kit‐8 (Dojindo, CK‐04) for 2 h. Cell viability was evaluated by measuring the absorbance at 450 nm. The formula used was [(As‐Ab)/(Ac‐Ab)] × 100%, where as represents the absorbance of the drug‐treated group, Ac represents the absorbance of the control group treated with medium, and Ab represents the absorbance of the blank control containing only medium.

Nur77-PPARγ interaction = molecular target: T1, Nur77-PPARγ interaction (Homo sapiens, UniProt P22736); assay: Co-immunoprecipitation (IP: Nur77; IB: PPARγ, Trim13) in HEK293T cells; format: cell-based; conditions: 1 × 10^−5 M, 24 h
T1 construct: expressed in transfected cells; host or cells: HEK293T
Method: HEK293T cells were seeded overnight in 10 cm culture dishes and transfected with the Nur77 and PPARγ plasmids for 48 h. After transfection, T‐CY14 and ST‐CY14 were incubated with the cells for 24 h. The cells were then collected and lysed in 500 µL precooled NP40 lysis buffer (Beyotime, P0013F), which contained 20x […] and 50x phosphatase inhibitor. All the samples were prepared at a concentration of 1 mg mL^−1, and 0.5 mg of the sample was subsequently incubated overnight at 4 °C with 2 µg of Nur77 antibody (Proteintech, 12235‐1‐AP). The samples were then incubated with Protein A/G PLUS‐Agarose (Santa Cruz, sc‐2003) for 4 h at 4 °C. The beads were collected through centrifugation and washed five times with NP40 lysis buffer. Finally, 5x loading buffer was added to the buffer containing the beads for Western blot analysis of PPARγ antibody (Proteintech, 16643‐1‐AP), Trim13 antibody (Abcam, ab234847), and β‐actin antibody (epizyme, LF201).

T1 sequence (P22736 whole entry): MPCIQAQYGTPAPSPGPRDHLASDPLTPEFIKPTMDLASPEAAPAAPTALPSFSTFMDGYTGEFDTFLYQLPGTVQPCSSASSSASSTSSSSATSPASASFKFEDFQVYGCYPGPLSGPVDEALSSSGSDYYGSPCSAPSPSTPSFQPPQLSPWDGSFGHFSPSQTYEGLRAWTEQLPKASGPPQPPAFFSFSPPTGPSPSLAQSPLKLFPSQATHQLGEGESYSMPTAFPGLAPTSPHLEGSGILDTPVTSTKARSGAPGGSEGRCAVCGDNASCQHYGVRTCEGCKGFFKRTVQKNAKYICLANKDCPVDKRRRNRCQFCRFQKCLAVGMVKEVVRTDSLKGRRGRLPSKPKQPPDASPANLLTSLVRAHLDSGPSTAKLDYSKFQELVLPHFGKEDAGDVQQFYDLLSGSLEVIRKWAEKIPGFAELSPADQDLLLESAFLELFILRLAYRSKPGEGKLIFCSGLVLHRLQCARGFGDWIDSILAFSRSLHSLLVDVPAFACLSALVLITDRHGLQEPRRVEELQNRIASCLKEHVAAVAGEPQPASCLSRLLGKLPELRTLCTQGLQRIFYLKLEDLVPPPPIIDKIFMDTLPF

C[C@@H](O)[C@@H]1NC(=O)[C@H](CCCNC(=N)N)NC(=O)[C@H](CCCNC(=N)N)NC(=O)[C@@](C)(NC(=O)[C@H](Cc2ccccc2)NC(=O)CNC(=O)[C@H](CCCCN)NC(=O)[C@H](CS)NC(=O)CNC(=O)[C@H](CCC(=O)O)NC(=O)[C@@H](N)CS)CCCC=CCCC[C@@](C)(C(=O)N[C@@H](CCCNC(=N)N)C(=O)N[C@@H](Cc2ccc(O)cc2)C(=O)N[C@@H](Cc2ccc(O)cc2)C(=O)NCC(=O)N[C@@H](CCCNC(=N)N)C(=O)N[C@@H](CCCCN)C(=O)N[C@@H](CCCCN)C(=O)N[C@@H](CCCNC(=N)N)C(=O)N[C@@H](CCCNC(=N)N)C(=O)N[C@@H](CCC(N)=O)C(=O)N[C@@H](CCCNC(=N)N)C(=O)N[C@@H](CCCNC(=N)N)C(=O)N[C@@H](CCCNC(=N)N)C(N)=O)NC1=O [ST-CY14] (H-CEGCKGF[S5]RRT[S5]RYYGRKKRRQRRR-NH2; staple 8-12)
Body weight loss and signs of organ toxicity (MDA-MB-231-GFP xenograft; 5 and 10 mg kg^−1, tail vein, once every two days, thirty days, H&E of major organs): without significant body weight loss (Figure 6c) or other signs of organ toxicity | Nur77, CD36 and FABP4 protein levels in tumors (Western blot) (MDA-MB-231-GFP xenograft; MDA-MB-231-GFP tumors): effectively increased Nur77 protein levels, and decreased CD36 and FABP4 protein levels | Ki-67, H&E and TUNEL analysis of tumor sections (MDA-MB-231-GFP xenograft; compared with the control group, n = 3): reduced tumor cell proliferation, increased necrosis area and apoptosis | Bone metastasis (bioluminescence imaging) ([1]; 5 and 10 mg kg^−1 i.v. every 2 days, day 28, n = 6): inhibited the metastasis of tumor cells | H&E staining of major organs ([1]; heart, liver, spleen, lung, kidney, n = 3): None of the groups demonstrated notable changes in H&E staining of major organs | Efficacy in inhibiting bone metastasis compared with Csn-B ([1]; i.v. every 2 days, day 28, n = 6): superior to that of Csn‐B | TRAP level in mouse femoral head ([1]; staining of bone tissue): decrease in the level of tartrate‐resistant acid phosphatase | BSP and β-CTx levels in mouse blood (ELISA) ([1]; versus control group): Lower levels | CD36 and FABP4 protein expression (immunoblot) (MDA-MB-231 cells): inhibited the protein expression of CD36 and FABP4 | Nur77 protein expression (immunoblot) (MDA-MB-231 cells): increase in Nur77 expression | Sensitivity of normal breast cells (MCF-10A cells): less sensitive to ST‐CY14 | Endogenous Nur77-PPARγ binding (Co-IP) (Nur77-PPARγ interaction): inhibited the binding between Nur77 and PPARγ | Trim13 and ubiquitination of Nur77 (Co-IP) (Nur77-PPARγ interaction): obviously reduced the expression of Trim13 and attenuated the PPARγ‐induced ubiquitination of endogenous Nur77
